The record followed here is paper PMC8668240, “GABAA Receptor Subunit Composition Drives Its Sensitivity to the Insecticide Fipronil” (Frontiers in Neuroscience, 2021).

As a reminder, the EC50 is the concentration needed to bring the measured effect to its halfway point. A high value points to a need for much substance. The term IC50 denotes the midpoint of a concentration-inhibition curve.

Assay in all cases: two-electrode voltage clamp, Xenopus oocytes
Common to all, as to assay type: cell-based

For assay [1], the target named is T1, α6β3 GABAAR (binary) (Mus musculus, UniProt P16305+P63080).
T1 construct: gene Gabra6; full-length cDNAs, injected 1:1 in Xenopus oocyte nucleus; heteropentamer without third subunit

Assay [2] has as its target T1, α6β3 GABAAR (binary). The conditions noted are these: read-out: IC50 (μM, ± SEM). From the text:
two-electrode voltage clamp, Xenopus oocytes on α6β3 GABAAR (binary)

Assay [3] addresses T2, α6β3δ GABAAR (extrasynaptic) (Mus musculus, UniProt P16305+P22933+P63080).
T2 construct: gene Gabra6; full-length cDNAs, injected 1:1:5 in Xenopus oocyte nucleus; heteropentamer
The note with it: read-out: IC50 (μM, ± SEM). An excerpt: two-electrode voltage clamp, Xenopus oocytes on α6β3δ GABAAR (extrasynaptic)

Assay [4] concerns the target T3, β3 homopentamer (Mus musculus, UniProt P63080).
T3 construct: gene Gabrb3; full-length cDNA in pGW1 (= pRK5), expressed in Xenopus oocytes; homopentamer
The note with it: current through spontaneously open β3; 1, 10 and 100 μM FPN; no GABA; positive modulator.

T1 sequence (P16305 20-453): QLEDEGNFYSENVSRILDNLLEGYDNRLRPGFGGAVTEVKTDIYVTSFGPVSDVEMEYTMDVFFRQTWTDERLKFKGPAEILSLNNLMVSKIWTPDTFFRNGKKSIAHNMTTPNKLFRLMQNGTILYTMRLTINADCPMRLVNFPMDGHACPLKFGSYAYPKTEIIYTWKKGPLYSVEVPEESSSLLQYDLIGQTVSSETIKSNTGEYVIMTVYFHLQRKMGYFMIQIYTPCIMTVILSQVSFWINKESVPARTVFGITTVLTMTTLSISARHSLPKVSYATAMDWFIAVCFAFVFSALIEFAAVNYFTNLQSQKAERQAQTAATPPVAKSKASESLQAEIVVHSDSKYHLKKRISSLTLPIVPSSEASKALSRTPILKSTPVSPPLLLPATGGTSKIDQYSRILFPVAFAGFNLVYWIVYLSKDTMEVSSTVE
T1 sequence (P63080 26-473): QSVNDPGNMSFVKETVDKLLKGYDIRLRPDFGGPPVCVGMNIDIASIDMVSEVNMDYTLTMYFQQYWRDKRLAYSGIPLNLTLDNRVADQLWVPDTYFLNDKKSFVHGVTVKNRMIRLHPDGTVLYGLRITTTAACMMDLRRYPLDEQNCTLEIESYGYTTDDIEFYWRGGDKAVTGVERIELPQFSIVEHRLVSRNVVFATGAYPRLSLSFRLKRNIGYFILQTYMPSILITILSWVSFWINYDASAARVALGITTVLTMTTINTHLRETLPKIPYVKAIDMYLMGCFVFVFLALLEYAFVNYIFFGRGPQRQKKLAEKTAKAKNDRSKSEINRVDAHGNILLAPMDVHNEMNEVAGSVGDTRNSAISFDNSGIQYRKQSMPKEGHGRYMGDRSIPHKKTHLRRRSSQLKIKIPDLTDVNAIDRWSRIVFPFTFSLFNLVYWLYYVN
T3 sequence (P63080 26-473): as above
T2 sequence (P63080 26-473): as above
T2 sequence (P22933 25-449): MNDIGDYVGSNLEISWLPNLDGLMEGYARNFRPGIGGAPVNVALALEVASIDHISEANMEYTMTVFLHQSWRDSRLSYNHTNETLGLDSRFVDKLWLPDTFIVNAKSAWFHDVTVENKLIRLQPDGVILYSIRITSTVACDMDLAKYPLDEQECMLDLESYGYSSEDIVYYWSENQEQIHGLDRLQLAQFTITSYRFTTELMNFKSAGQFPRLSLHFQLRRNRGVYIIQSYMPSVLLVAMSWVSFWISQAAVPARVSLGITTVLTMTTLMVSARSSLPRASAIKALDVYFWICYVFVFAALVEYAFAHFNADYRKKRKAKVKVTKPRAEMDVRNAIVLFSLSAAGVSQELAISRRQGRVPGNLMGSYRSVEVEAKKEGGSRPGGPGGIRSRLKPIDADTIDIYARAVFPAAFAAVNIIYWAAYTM
T2 sequence (P16305 20-453): as the sequence (P16305 20-453) above

Regarding `NCCCC(=O)O` [GABA], in assay [1], a half-maximal response (EC50) required 430 ± 10 nM.

As for `N#Cc1nn(-c2c(Cl)cc(C(F)(F)F)cc2Cl)c(N)c1[S+]([O-])C(F)(F)F` (stereo not shown) [fipronil], the results for the IC50 in assay [2] and in assay [3] were 2.4 ± 0.4 µM and 20.7 ± 2.6 µM, respectively. The “two-electrode voltage clamp, Xenopus oocytes” value in assay [4] was “The current density increases as a function of FPN concentrations”.
